These compounds were tested on HCV replication (assay: Replicon Assay (Huh-lucubineo-ET cells, luciferase readout)). Conditions: Hepatitis C virus; ET (Huh-lucubineo-ET) HCV replicon cell line; luciferase activity 48-72 hours after compound addition; 6 dilutions.
Format: cell-based
Method: A cell line, ET (Huh-lucubineo-ET) was used for screening of compounds of the present invention for inhibition of HCV replication. The ET cell line was stably transfected with RNA transcripts harboring a I389luc-ubi-neo/NS3-3′/ET; replicon with firefly luciferase-ubiquitin-neomycin phosphotransferase fusion protein and EMCV-IRES driven NS3-5B polyprotein containing the cell culture adaptive mutations (E1202G; T1280I; K1846T) (Krieger at al, 2001 and unpublished). The ET cells were grown in DMEM, supplemented with 10% fetal calf serum, 2 mM Glutamine, Penicillin (100 IU/mL)/Streptomycin (100 μg/mL), 1× nonessential amino acids, and 250 μg/mL G418 (“Geneticin”). They were all available through Life Technologies (Bethesda, Md.). The cells were plated at 0.5−1.0×10^4 cells/well in the 96 well plates and incubated for 24 hrs before adding the test compounds. The compounds were then added to the cells to achieve a final concentration of 5 or 50 μM. Luciferase activity was measured 48-72 hours later by adding a lysis buffer and the substrate (Catalog number Glo-lysis buffer E2661 and Bright-Glo luciferase system E2620 Promega, Madison, Wis.). Cells should not be too confluent during the assay. Percent inhibition of replication was plotted relative to no compound control. For EC50 (effective concentration at which 50% of the maximum inhibition is observed) determinations, 6 dilutions of each compound were used. Compounds were typically diluted 3 fold to span a concentration range of 250 fold. EC50 and similarly TC50 values were calculated by fitting % inhibition at each concentration to the following equation:
% inhibition=100%/[(EC50/[I])^b+1]
where b is Hill's coefficient.

**Q.** For COc1ccc(-c2ccc(Cn3cc4nc(-c5cccc(F)c5F)nc-4cn3)c(-c3ccc(OC)cc3C(F)(F)F)n2)c(C(F)(F)F)c1 [Compound 252, 5-[2,6-Bis-(4-methoxy-2-trifluoromethyl-phenyl)-pyridin-3-ylmethyl]-2-(2,3-difluoro-phenyl)-5H-imidazo[4,5-d]pyridazine], which EC50 is on record?
**A.** 2640 nM

**Q.** How did the EC50 turn out when Fc1cccc(-c2nc3cnn(Cc4ccc(-c5ccc(C(F)(F)F)cc5)nc4)cc-3n2)c1F [Compound 253, 2-(2,3-Difluoro-phenyl)-5-[6-(4-trifluoromethyl-phenyl)-pyridin-3-ylmethyl]-5H-imidazo[4,5-d]pyridazine] was run?
**A.** ≥ 50000 nM

**Q.** Which EC50 does the source give for Fc1cc(C(F)(F)F)ccc1-c1ccc(Cn2cc3nc(-c4cccc(F)c4F)nc-3cn2)nc1 [Compound 254, 2-(2,3-Difluoro-phenyl)-5-[5-(2-fluoro-4-trifluoromethyl-phenyl)-pyridin-2-ylmethyl]-5H-imidazo[4,5-d]pyridazine] here?
**A.** ≥ 50000 nM

**Q.** With COc1ccc(-c2ccc(Cn3cc4nc(-c5cccc(F)c5F)nc-4cn3)c(Cl)n2)c(C(F)(F)F)c1 [Compound 255, 5-[2-Chloro-6-(4-methoxy-2-trifluoromethyl-phenyl)-pyridin-3-ylmethyl]-2-(2,3-difluoro-phenyl)-5H-imidazo[4,5-d]pyridazine] as the compound, how does the EC50 read?
**A.** 69 nM

**Q.** For Fc1cccc(-c2nc3cnn(Cc4cccc(-c5ccc(C(F)(F)F)cc5C(F)(F)F)c4)cc-3n2)c1F [Compound 256, 5-(2′,4′-Bis-trifluoromethyl-biphenyl-3-ylmethyl)-2-(2,3-difluoro-phenyl)-5H-imidazo[4,5-d]pyridazine], which EC50 is on record?
**A.** 9790 nM

**Q.** With Fc1cc(-c2ccc(C(F)(F)F)cc2C(F)(F)F)ccc1Cn1cc2nc(-c3cccc(F)c3F)nc-2cn1 [Compound 257, 2-(2,3-Difluoro-phenyl)-5-(3-fluoro-2′,4′-bis-trifluoromethyl-biphenyl-4-ylmethyl)-5H-imidazo[4,5-d]pyridazine] as the compound, how does the EC50 read?
**A.** 45 nM

**Q.** How did the EC50 turn out when COc1ccc(-c2ccc(Cn3cc4nc(-c5cccc(F)c5F)nc-4cn3)cc2[N+](=O)[O-])c(C(F)(F)F)c1 [Compound 258, 2-(2,3-Difluoro-phenyl)-5-(4′-methoxy-2-nitro-2′-trifluoromethyl-biphenyl-4-ylmethyl)-5H-imidazo[4,5-d]pyridazine] was run?
**A.** 228 nM

**Q.** COc1ccc(-c2ccc(Cn3cc4nc(-c5cccc(F)c5F)nc-4cn3)c(F)c2)c(C(F)(F)F)c1 [Compound 259, 2-(2,3-Difluoro-phenyl)-5-(3-fluoro-4′-methoxy-2′-trifluoromethyl-biphenyl-4-ylmethyl)-5H-imidazo[4,5-d]pyridazine] was tested. Which EC50 did it give?
**A.** 20 nM

**Q.** CCCOc1ccc(-c2ccc(Cn3cc4nc(-c5cccc(F)c5F)nc-4cn3)cc2[N+](=O)[O-])cc1 [Compound 260, 2-(2,3-Difluoro-phenyl)-5-(2-nitro-4′-propoxy-biphenyl-4-ylmethyl)-5H-imidazo[4,5-d]pyridazine] was tested. Which EC50 did it give?
**A.** 146 nM

**Q.** COc1ccc(-c2ccc(Cn3cc4nc(-c5cccc(F)c5F)nc-4cn3)cc2F)c(C(F)(F)F)c1 [Compound 261, 2-(2,3-Difluoro-phenyl)-5-(2-fluoro-4′-methoxy-2′-trifluoromethyl-biphenyl-4-ylmethyl)-5H-imidazo[4,5-d]pyridazine] was tested. Which EC50 did it give?
**A.** 50 nM

**Q.** For Fc1cccc(-c2nc3cnn(Cc4ccc(Br)cn4)cc-3n2)c1F [Compound 262, 5-(5-bromo-pyridin-2-ylmethyl)-2-(2,3-difluoro-phenyl)-5H-imidazo[4,5-d]pyridazine], which EC50 is on record?
**A.** ≥ 50000 nM

**Q.** How did the EC50 turn out when Fc1cccc(-c2nc3cnn(Cc4ccc(C(F)(F)F)cc4C(F)(F)F)cc-3n2)c1F [Compound 263, 5-(2,4-Bis-trifluoromethyl-benzyl)-2-(2,3-difluoro-phenyl)-5H-imidazo[4,5-d]pyridazine] was run?
**A.** ≥ 50000 nM

**Q.** N#Cc1ccccc1-c1ccc(Cn2cc3nc(-c4cccc(F)c4F)nc-3cn2)cc1 [Compound 264, 4′-[2-(2,3-Difluoro-phenyl)-imidazo[4,5-d]pyridazin-5-ylmethyl]-biphenyl-2-carbonitrile] was tested. Which EC50 did it give?
**A.** 892 nM

**Q.** Which EC50 does the source give for COc1ccc(-c2cnc(Cn3cc4nc(-c5cccc(F)c5F)nc-4cn3)nc2)c(C(F)(F)F)c1 [Compound 265, 2-(2,3-Difluoro-phenyl)-5-[5-(4-methoxy-2-trifluoromethyl-phenyl)-pyrimidin-2-ylmethyl]-5H-imidazo[4,5-d]pyridazine] here?
**A.** 228 nM

**Q.** CCCOc1ccc(-c2cnc(Cn3cc4nc(-c5cccc(F)c5F)nc-4cn3)nc2)c(C(F)(F)F)c1 [Compound 266, 2-(2,3-Difluoro-phenyl)-5-[5-(4-propoxy-2-trifluoromethyl-phenyl)-pyrimidin-2-ylmethyl]-5H-imidazo[4,5-d]pyridazine] was tested. Which EC50 did it give?
**A.** 218 nM

**Q.** For Fc1ccccc1-c1nc2cnn(Cc3ccc(-c4ccc(C(F)(F)F)cc4C(F)(F)F)cn3)cc-2n1 [Compound 267, 5-[5-(2,4-Bis-trifluoromethyl-phenyl)-pyridin-2-ylmethyl]-2-(2-fluoro-phenyl)-5H-imidazo[4,5-d]pyridazine], which EC50 is on record?
**A.** 1300 nM

**Q.** For Cc1nc(-c2ccc(Cn3cc4nc(-c5cccc(F)c5F)nc-4cn3)cc2)cs1 [Compound 268, 2-(2,3-Difluoro-phenyl)-5-[4-(2-methyl-thiazol-4-yl)-benzyl]-5H-imidazo[4,5-d]pyridazine], which EC50 is on record?
**A.** ≥ 50000 nM

**Q.** How did the EC50 turn out when Fc1cccc(-c2nc3cnn(CCCCc4ccc(C(F)(F)F)cc4C(F)(F)F)cc-3n2)c1F [Compound 269, 5-[4-(2,4-Bis-trifluoromethyl-phenyl)-butyl]-2-(2,3-difluoro-phenyl)-5H-imidazo[4,5-d]pyridazine] was run?
**A.** 25000 nM

**Q.** Fc1cccc(-c2nc3cnn(CCCc4ccc(C(F)(F)F)cc4C(F)(F)F)cc-3n2)c1F [Compound 270, 5-[3-(2,4-Bis-trifluoromethyl-phenyl)-propyl]-2-(2,3-difluoro-phenyl)-5H-imidazo[4,5-d]pyridazine] was tested. Which EC50 did it give?
**A.** 52500 nM

**Q.** Which EC50 does the source give for COc1ccc(-c2ncc(Cn3cc4nc(-c5cccc(F)c5F)nc-4cn3)cn2)c(C(F)(F)F)c1 [Compound 271, 2-(2,3-Difluoro-phenyl)-5-[2-(4-methoxy-2-trifluoromethyl-phenyl)-pyrimidin-5-ylmethyl]-5H-imidazo[4,5-d]pyridazine] here?
**A.** 49 nM

**Q.** How did the EC50 turn out when Fc1cccc(-c2nc3cnn(Cc4ccc(-c5ccsc5)cc4)cc-3n2)c1F [Compound 272, 2-(2,3-Difluoro-phenyl)-5-(4-thiophen-3-yl-benzyl)-5H-imidazo[4,5-d]pyridazine] was run?
**A.** 18700 nM

**Q.** For O=C(Nc1ccccc1)c1ccc(Cn2cc3nc(-c4cccc(F)c4F)nc-3cn2)cc1 [Compound 273, 4-[2-(2,3-Difluoro-phenyl)-imidazo[4,5-d]pyridazin-5-ylmethyl]-N-phenyl-benzamide], which EC50 is on record?
**A.** ≥ 50000 nM

**Q.** For COc1ccc(NC(=O)c2ccc(Cn3cc4nc(-c5cccc(F)c5F)nc-4cn3)cc2)cc1 [Compound 274, 4-[2-(2,3-Difluoro-phenyl)-imidazo[4,5-d]pyridazin-5-ylmethyl]-N-(4-methoxy-phenyl)-benzamide], which EC50 is on record?
**A.** ≥ 50000 nM

**Q.** Which EC50 does the source give for O=S(=O)(c1ccc(Cn2cc3nc(-c4cccc(F)c4F)nc-3cn2)cc1)N1CCOCC1 [Compound 275, 2-(2,3-Difluoro-phenyl)-5-[4-(morpholine-4-sulfonyl)-benzyl]-5H-imidazo[4,5-d]pyridazine] here?
**A.** ≥ 50000 nM

**Q.** Which EC50 does the source give for Fc1cccc(-c2nc3cnn(Cc4ccc5nsnc5c4)cc-3n2)c1F [Compound 276, 5-Benzo[1,2,5]thiadiazol-5-ylmethyl-2-(2,3-difluoro-phenyl)-5H-imidazo[4,5-d]pyridazine] here?
**A.** ≥ 50000 nM

**Q.** How did the EC50 turn out when Cc1nc(-c2ccc(Cn3cc4nc(-c5cccc(F)c5F)nc-4cn3)cc2)no1 [Compound 277, 2-(2,3-Difluoro-phenyl)-5-[4-(5-methyl-[1,2,4]oxadiazol-3-yl)-benzyl]-5H-imidazo[4,5-d]pyridazine] was run?
**A.** ≥ 50000 nM

**Q.** Fc1cccc(-c2nc3cnn(Cc4ccc5ccccc5c4)cc-3n2)c1F [Compound 278, 2-(2,3-Difluoro-phenyl)-5-naphthalen-2-ylmethyl-5H-imidazo[4,5-d]pyridazine] was tested. Which EC50 did it give?
**A.** ≥ 50000 nM

**Q.** How did the EC50 turn out when Fc1cccc(-c2nc3cnn(Cc4cccc(Oc5ccccc5)c4)cc-3n2)c1F [Compound 279, 2-(2,3-Difluoro-phenyl)-5-(3-phenoxy-benzyl)-5H-imidazo[4,5-d]pyridazine] was run?
**A.** 20000 nM

**Q.** For Fc1cccc(-c2nc3cnn(Cc4ccc(OCc5ccccc5)cc4)cc-3n2)c1F [Compound 280, 5-(4-Benzyloxy-benzyl)-2-(2,3-difluoro-phenyl)-5H-imidazo[4,5-d]pyridazine], which EC50 is on record?
**A.** ≥ 50000 nM

**Q.** For Fc1cccc(-c2nc3cnn(Cc4ccc(/C=C/c5ccccc5)cc4)cc-3n2)c1F [Compound 281, 2-(2,3-Difluoro-phenyl)-5-(4-styrylbenzyl)-5H-imidazo[4,5-d]pyridazine], which EC50 is on record?
**A.** 1800 nM

**Q.** With Fc1cccc(-c2nc3cnn(Cc4ccc(-c5ccccc5)cc4)cc-3n2)c1F [Compound 282, 5-Biphenyl-4-ylmethyl-2-(2,3-difluoro-phenyl)-5H-imidazo[4,5-d]pyridazine] as the compound, how does the EC50 read?
**A.** 690 nM

**Q.** Fc1cccc(-c2nc3cnn(Cc4ccc5occc5c4)cc-3n2)c1F [Compound 283, 5-Benzofuran-5-ylmethyl-2-(2,3-difluoro-phenyl)-5H-imidazo[4,5-d]pyridazine] was tested. Which EC50 did it give?
**A.** ≥ 50000 nM

— patent publication US20090226398A1, “ANTI-VIRAL COMPOUNDS, COMPOSITIONS, AND METHODS OF USE” (Genelabs Technologies, Inc., priority 2008, published 2009)
